Tests used:
Experiment in all cases: relative viability (nuclei count vs DMSO), 5 days (fraction); higher = more cells survive
Gemcitabine + AZD7762 = compound: Nc1ccn([C@@H]2O[C@H](CO)[C@@H](O)C2(F)F)c(=O)n1 [Gemcitabine] + NC(=O)Nc1cc(-c2cccc(F)c2)sc1C(=O)N[C@H]1CCCNC1 [AZD7762] (partner 0.2 µM)
Outline: (§1)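 Nuclei were stained with Hoechst during a one-step fixation (final 0.05% Triton X-100, 1% formaldehyde, 1 ug/ml Hoechst) carried out 5 days after dosing, then counted on 4× images. The cells, lung cancer lines in 1536-well plates, had been dosed by pin tool the day after seeding with one drug alone or a fixed anchor-drug dose plus five library-drug doses (not always all listed) in √10 steps. Relative viability is the nuclei count in treated wells divided by that in vehicle wells, and each value is the median of duplicate plates.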

Gemcitabine + Tozasertib = compound: Nc1ccn([C@@H]2O[C@H](CO)[C@@H](O)C2(F)F)c(=O)n1 [Gemcitabine] + Cc1cc(Nc2cc(N3CCN(C)CC3)nc(Sc3ccc(NC(=O)C4CC4)cc3)n2)n[nH]1 [Tozasertib] (partner 0.1 µM)
Outline: as §1

Gemcitabine + Bortezomib = compound: Nc1ccn([C@@H]2O[C@H](CO)[C@@H](O)C2(F)F)c(=O)n1 [Gemcitabine] + CC(C)C[C@H](NC(=O)[C@H](Cc1ccccc1)NC(=O)c1cnccn1)B(O)O [Bortezomib] (partner 0.002 µM)
Outline: as §1

Gemcitabine + Decitabine = compound: Nc1ccn([C@@H]2O[C@H](CO)[C@@H](O)C2(F)F)c(=O)n1 [Gemcitabine] + Nc1ncn([C@H]2C[C@H](O)[C@@H](CO)O2)c(=O)n1 [Decitabine] (partner 2 µM)
Outline: as §1

Cell Line | relative viability (Gemcitabine + AZD7762; first compound 0.001 µM) | relative viability (Gemcitabine + AZD7762; first compound 0.003162 µM) | relative viability (Gemcitabine + AZD7762; first compound 0.01 µM) | relative viability (Gemcitabine + AZD7762; first compound 0.03162 µM) | relative viability (Gemcitabine + AZD7762; first compound 0.1 µM) | relative viability (Gemcitabine + Tozasertib; first compound 0.001 µM) | relative viability (Gemcitabine + Tozasertib; first compound 0.003162 µM) | relative viability (Gemcitabine + Tozasertib; first compound 0.01 µM) | relative viability (Gemcitabine + Tozasertib; first compound 0.03162 µM) | relative viability (Gemcitabine + Tozasertib; first compound 0.1 µM) | relative viability (Gemcitabine + Bortezomib; first compound 0.001 µM) | relative viability (Gemcitabine + Bortezomib; first compound 0.003162 µM) | relative viability (Gemcitabine + Bortezomib; first compound 0.01 µM) | relative viability (Gemcitabine + Bortezomib; first compound 0.03162 µM) | relative viability (Gemcitabine + Bortezomib; first compound 0.1 µM) | relative viability (Gemcitabine + Decitabine; first compound 0.001 µM) | relative viability (Gemcitabine + Decitabine; first compound 0.003162 µM) | relative viability (Gemcitabine + Decitabine; first compound 0.01 µM) | relative viability (Gemcitabine + Decitabine; first compound 0.03162 µM) | relative viability (Gemcitabine + Decitabine; first compound 0.1 µM)
LCLC-97TM1 | 0.105 | 0.0523 | 0.0434 | 0.0523 | 0.0703 | 0.253 | 0.244 | 0.156 | 0.123 | 0.134 | 0.752 | 0.19 | 0.0897 | 0.0533 | 0.0696 | 0.235 | 0.206 | 0.143 | 0.104 | 0.0854
HARA | 0.328 | 0.241 | 0.131 | 0.132 | 0.117 | 0.12 | 0.103 | 0.095 | 0.0811 | 0.042 | 1.15 | 1.22 | 1.04 | 0.695 | 0.1 | 0.593 | 0.702 | 0.373 | 0.279 | 0.131
HCC-78 | 0.477 | 0.303 | 0.186 | 0.214 | 0.277 | 0.448 | 0.37 | 0.147 | 0.198 | 0.164 | 0.593 | 0.314 | 0.335 | 0.302 | 0.193 | 0.622 | 0.651 | 0.367 | 0.343 | 0.268
NCI-H1666 | 0.866 | 0.699 | 0.582 | 0.332 | 0.368 | 0.622 | 0.615 | 0.582 | 0.387 | 0.337 | 0.739 | 0.979 | 0.567 | 0.24 | 0.225 | 0.686 | 0.55 | 0.712 | 0.538 | 0.447
NCI-H2347 | 0.494 | 0.468 | 0.205 | 0.217 | 0.233 | 0.563 | 0.547 | 0.484 | 0.29 | 0.259 | 0.621 | 0.961 | 0.534 | 0.653 | 0.401 | 0.537 | 0.645 | 0.58 | 0.478 | 0.539
NCI-H838 | 0.93 | 0.886 | 0.648 | 0.565 | 0.616 | 0.283 | 0.277 | 0.263 | 0.164 | 0.121 | 0.911 | 0.948 | 1.02 | 0.355 | 0.0993 | 0.442 | 0.485 | 0.365 | 0.281 | 0.187
NCI-H2023 |  |  |  |  |  | 0.409 | 0.385 | 0.233 | 0.101 | 0.0648 | 1.12 | 1.11 | 0.241 | 0.104 | 0.0584 | 0.224 | 0.217 | 0.126 | 0.0929 | 0.0689
201T | 0.59 | 0.584 | 0.237 | 0.225 | 0.233 | 0.981 | 0.98 | 0.896 | 0.425 | 0.298 | 1.03 | 1.09 | 1.12 | 0.952 | 0.401 | 0.83 | 0.87 | 0.906 | 0.776 | 0.446
NCI-H1915 | 0.768 | 0.662 | 0.656 | 0.127 | 0.0991 | 0.461 | 0.462 | 0.397 | 0.317 | 0.193 | 0.978 | 1 | 0.969 | 0.825 | 0.617 | 0.255 | 0.262 | 0.254 | 0.258 | 0.182
NCI-H2009 |  |  |  |  |  | 0.854 | 0.65 | 0.24 | 0.163 | 0.11 | 1.06 | 0.586 | 0.133 | 0.111 | 0.0676 | 0.363 | 0.264 | 0.233 | 0.141 | 0.114
BEN | 0.441 | 0.252 | 0.184 | 0.184 | 0.253 | 0.56 | 0.559 | 0.419 | 0.24 | 0.175 | 0.79 | 0.669 | 0.198 | 0.118 | 0.113 | 0.698 | 0.456 | 0.413 | 0.249 | 0.257
PC-14 | 0.269 | 0.0798 | 0.0434 | 0.0466 | 0.0618 | 0.579 | 0.275 | 0.078 | 0.0297 | 0.0356 | 0.867 | 0.507 | 0.42 | 0.0489 | 0.0512 | 0.217 | 0.0953 | 0.0507 | 0.0388 | 0.0405
SK-MES-1 |  |  |  |  |  | 0.691 | 0.305 | 0.197 | 0.147 | 0.126 |  |  |  |  |  | 0.387 | 0.264 | 0.168 | 0.172 | 0.152
NCI-H727 | 0.545 | 0.45 | 0.389 | 0.311 | 0.403 | 0.571 | 0.443 | 0.352 | 0.431 | 0.321 | 0.841 | 0.405 | 0.241 | 0.258 | 0.287 | 0.846 | 0.477 | 0.569 | 0.451 | 0.47
NCI-H1355 | 0.434 | 0.196 | 0.112 | 0.163 | 0.132 | 0.508 | 0.393 | 0.189 | 0.18 | 0.169 | 1.17 | 0.948 | 0.521 | 0.145 | 0.16 | 0.338 | 0.294 | 0.25 | 0.198 | 0.191
NCI-H1975 | 0.699 | 0.353 | 0.19 | 0.247 | 0.204 | 0.892 | 0.561 | 0.256 | 0.132 | 0.0954 | 0.385 | 0.401 | 0.207 | 0.198 | 0.155 | 0.307 | 0.373 | 0.387 | 0.197 | 0.167
LK-2 | 0.455 | 0.251 | 0.0955 | 0.105 | 0.0964 | 0.162 | 0.157 | 0.21 | 0.183 | 0.165 |  |  |  |  |  | 0.242 | 0.23 | 0.204 | 0.109 | 0.128

Source: the supplement of paper PMC10307832
